Laboratory results: paper PMC12388523, “Flavonoids and Sesquiterpene Lactones from Lychnophora ericoides (Arnica-Do-Cerrado) and Their In Vitro Effects on Multiple Myeloma and Acute Myeloid Leukemia” (Metabolites, 2025)

Assays:
[1] = test system: HL-60, MOLM-13, AMO-1, and KMS-12 PE cancer cells; test: Metabolic activity, range over the four tested cancer cell lines; assay type: cell-based; conditions: HL-60, MOLM-13, AMO-1, KMS-12 PE; read-out: IC50 inhibition of metabolic activity, range over cell lines
Protocol: Acute myeloid leukemia cell line HL-60 and multiple myeloma cell lines AMO-1 and KMS-12-PE were obtained from the German Collection of Microorganisms and Cell Cultures (DSMZ), Braunschweig, Germany, and non-tumorigenic stromal cell line HS-5 was acquired from the American Type Culture Collection (ATCC, Manassas, VA, USA). All cell lines were cultured in RPMI 1640 medium without phenol red (Pan Biotech, Aidenbach, Germany), supplemented with 2 mM glutamine, 100 U/mL penicillin, 100 µg/mL streptomycin (Sigma-Aldrich, St. Louis, MO, USA), and 10% fetal bovine serum (FBS Maximus, Catus Biotech GmbH, Tutzing, Germany) at 37 °C in a humidified atmosphere of 5% CO2/95% air. […] Cell proliferation was assessed by [^3H]-thymidine uptake. […] Cells were harvested using a semi-automated device, and [^3H]-thymidine incorporation (expressed in counts per minute, cpm) was measured with a scintillation counter (MicroBeta TriLux, PerkinElmer, Waltham, MA, USA). Metabolic activity was assessed by resazurin staining. […] Relative fluorescence units (RFUs) were measured using a Synergy H1 plate reader equipped with a 560 nm excitation/590 nm emission filter set (BioTek; Agilent, Santa Clara, CA, USA). Proliferation and metabolic activity in the absence of compounds were defined as 100% (control), and the values for compound-treated samples were expressed as percentages relative to the control. […]

KB cell line = test system: KB cell line; set-up: method as in PMID 17089326; conditions: cited from earlier work
B16 = test system: B16; set-up: method as in PMID 15577239; conditions: cited from earlier work
NF-κB p65 = test system: NF-κB p65; set-up: method as in PMID 22685350; conditions: read-out: concentration inhibiting NF-κB p65; cited from earlier work
HS-5 cells [2] = test: Metabolic activity, resazurin staining, non-malignant HS-5; assay type: cell-based; conditions: HS5, HS-5 (non-malignant), 72 h, 95% confidence interval in brackets, read-out: IC50 inhibition of metabolic activity
Protocol: (§1) Acute myeloid leukemia cell line HL-60 and multiple myeloma cell lines AMO-1 and KMS-12-PE were obtained from the German Collection of Microorganisms and Cell Cultures (DSMZ), Braunschweig, Germany, and non-tumorigenic stromal cell line HS-5 was acquired from the American Type Culture Collection (ATCC, Manassas, VA, USA). All cell lines were cultured in RPMI 1640 medium without phenol red (Pan Biotech, Aidenbach, Germany), supplemented with 2 mM glutamine, 100 U/mL penicillin, 100 µg/mL streptomycin (Sigma-Aldrich, St. Louis, MO, USA), and 10% fetal bovine serum (FBS Maximus, Catus Biotech GmbH, Tutzing, Germany) at 37 °C in a humidified atmosphere of 5% CO2/95% air. Cells were fed twice weekly. Logarithmically growing cells were resuspended at 1 × 10^5 cells/mL, plated in triplicate in round-bottom 96-well plates (100 µL per well; Falcon, Becton Dickinson, Franklin Lakes, NJ, USA), and incubated at 37 °C in 5% CO2/95% air for 2 h. […] Cell proliferation was assessed by [^3H]-thymidine uptake. […] Cells were harvested using a semi-automated device, and [^3H]-thymidine incorporation (expressed in counts per minute, cpm) was measured with a scintillation counter (MicroBeta TriLux, PerkinElmer, Waltham, MA, USA). Metabolic activity was assessed by resazurin staining. […] Relative fluorescence units (RFUs) were measured using a Synergy H1 plate reader equipped with a 560 nm excitation/590 nm emission filter set (BioTek; Agilent, Santa Clara, CA, USA). Proliferation and metabolic activity in the absence of compounds were defined as 100% (control), and the values for compound-treated samples were expressed as percentages relative to the control. Selectivity indices were calculated by dividing the IC50 value of each compound against HS-5 cells through the IC50 values against the investigated cell lines.
(§2) The Wilcoxon Rank Sum Test was used to analyze proliferation and metabolic activity in the absence and presence of varying compound concentrations (NCSS 2007 software, version 07.1.2, Kaysville, UT, USA). […] IC50 values were calculated using GraphPad Prism 10.1.2. […]

MOLM-13 cells [3] = test: Metabolic activity, resazurin staining, MOLM-13; assay type: cell-based
Protocol: [The source words this procedure for another cell line and reports this cell line under the same test.] (§3) Acute myeloid leukemia cell line HL-60 and multiple myeloma cell lines AMO-1 and KMS-12-PE were obtained from the German Collection of Microorganisms and Cell Cultures (DSMZ), Braunschweig, Germany, and non-tumorigenic stromal cell line HS-5 was acquired from the American Type Culture Collection (ATCC, Manassas, VA, USA). All cell lines were cultured in RPMI 1640 medium without phenol red (Pan Biotech, Aidenbach, Germany), supplemented with 2 mM glutamine, 100 U/mL penicillin, 100 µg/mL streptomycin (Sigma-Aldrich, St. Louis, MO, USA), and 10% fetal bovine serum (FBS Maximus, Catus Biotech GmbH, Tutzing, Germany) at 37 °C in a humidified atmosphere of 5% CO2/95% air. Cells were fed twice weekly. Logarithmically growing cells were resuspended at 1 × 10^5 cells/mL, plated in triplicate in round-bottom 96-well plates (100 µL per well; Falcon, Becton Dickinson, Franklin Lakes, NJ, USA), and incubated at 37 °C in 5% CO2/95% air for 2 h. Subsequently, the compounds were adjusted in the cell culture medium to reach the final concentrations in a total volume of 150 µL and incubated for an additional 72 h. Cell proliferation was assessed by [^3H]-thymidine uptake. Each well was exposed to 2 µCi [^3H]-thymidine (Hartmann Analytic, Braunschweig, Germany) during the final 12–16 h of incubation. Cells were harvested using a semi-automated device, and [^3H]-thymidine incorporation (expressed in counts per minute, cpm) was measured with a scintillation counter (MicroBeta TriLux, PerkinElmer, Waltham, MA, USA). Metabolic activity was assessed by resazurin staining. Resazurin (Carl Roth, Karlsruhe, Germany) was dissolved in distilled water at a concentration of 0.1 mg/mL, and 15 µL of this solution was added to each well, followed by a 2 h incubation at 37 °C. Relative fluorescence units (RFUs) were measured using a Synergy H1 plate reader equipped with a 560 nm excitation/590 nm emission filter set (BioTek; Agilent, Santa Clara, CA, USA). Proliferation and metabolic activity in the absence of compounds were defined as 100% (control), and the values for compound-treated samples were expressed as percentages relative to the control. Selectivity indices were calculated by dividing the IC50 value of each compound against HS-5 cells through the IC50 values against the investigated cell lines.
(§4) The Wilcoxon Rank Sum Test was used to analyze proliferation and metabolic activity in the absence and presence of varying compound concentrations (NCSS 2007 software, version 07.1.2, Kaysville, UT, USA). A p-value < 0.05 was considered statistically significant. IC50 values were calculated using GraphPad Prism 10.1.2. This software reports 95% confidence intervals instead of standard errors. […] Nonetheless, the figures clearly illustrate the IC50 values due to the narrow concentration range tested.
Proliferation inhibition often leads to cell death. Therefore, the cytotoxic activity of the compounds was further evaluated using a modified 3-(4,5-dimethylthiazol-2-yl)-2,5-diphenyltetrazolium bromide (MTT) assay, the resazurin (Alamar Blue) assay. Metabolically active cells reduce the non-fluorescent dye resazurin to the fluorescent dye resorufin via mitochondrial reductase activity, which correlates with cell viability. In the first step the metabolic activity of the four isolated flavonoids was investigated, showing a dose-dependent reduction, but to a much lower extent than in the proliferation assays (Table A2). In fact, only 7,3′,4′-trimethoxymyricetin (2) inhibited the metabolic activity of all four cell lines by more than 50% at a concentration of 100 µM.

HT-29 cells = test system: HT-29 cells; set-up: method as in PMID 29350920; conditions: cited from earlier work
EOL-1 = test system: EOL-1; set-up: method as in PMID 29350920; conditions: cited from earlier work
KMS-12-PE cells = test: Proliferation, [3H]-thymidine uptake, KMS-12-PE; assay type: cell-based
Protocol: as §3, §4

HS-5 cells [4] = test: Proliferation, [3H]-thymidine uptake, non-malignant HS-5; assay type: cell-based; conditions: HS5; HS-5 (non-malignant), 72 h, 95% confidence interval in brackets; read-out: IC50 inhibition of proliferation
Protocol: as §1, §2

HL-60 cells = test: Proliferation, [3H]-thymidine uptake, HL-60; assay type: cell-based
Protocol: as §3, §4

NF-κB = test system: NF-κB; set-up: method as in PMID 25621077; conditions: HT-29; cited from earlier work
[5] = test system: myelomonocytic chicken cell line HD11-C3; set-up: method as in PMID 23501116; conditions: read-out: IC50 cytotoxic activity; cited from earlier work
AMO-1 cells = test: Proliferation, [3H]-thymidine uptake, AMO-1; assay type: cell-based
Protocol: as §3, §4

[6] = test system: human colon cancer cell line HT-29; set-up: method as in PMID 22685350; conditions: cited from earlier work
[7] = test system: c-Myb-dependent gene expression; set-up: method as in PMID 23501116; conditions: read-out: IC50 inhibition of c-Myb-dependent gene expression; cited from earlier work
MOLM-13 cells [8] = test: Proliferation, [3H]-thymidine uptake, MOLM-13; assay type: cell-based
Protocol: [The source words this procedure for another cell line and reports this cell line under the same test.] as §3, §4

IC50 [1]: 1000 to 2000 nM
IC50 (MOLM-13 cells [3]; Homo sapiens, MOLM-13, 72 h, resazurin, 95% confidence interval in brackets, read-out: IC50 inhibition of metabolic activity): 1000 nM
IC50 (HL-60 cells; Homo sapiens, HL-60, 72 h, 95% confidence interval in brackets, read-out: IC50 inhibition of proliferation): 1100 nM
IC50 (MOLM-13 cells [8]; Homo sapiens, MOLM-13, 72 h, 95% confidence interval in brackets, read-out: IC50 inhibition of proliferation): 1000 nM
SMILES: C=C(C)C(=O)O[C@H]1C[C@@]2(C)OC(=CC2=O)/C(CO)=C\[C@H]2OC(=O)C(=C)[C@H]12 [Compound 5, goyazensolide]
IC50 (KB cell line): < 300 nM
IC50 (B16): 2080 nM
IC50 (NF-κB p65): 3800 nM
IC50 (HS-5 cells [2]): 2600 nM
Selectivity index (metabolic activity) (MOLM-13 cells [3]; IC50 HS-5 / IC50 MOLM-13): 2.6
IC50 (HT-29 cells): 560 nM
IC50 (EOL-1): 1100 nM
IC50 (KMS-12-PE cells; Homo sapiens, KMS-12-PE, 72 h, KMS-12-PE, 72 h, 95% confidence interval in brackets, read-out: IC50 inhibition of proliferation): 1500 nM
Selectivity index (proliferation) (KMS-12-PE cells; IC50 HS-5 / IC50 KMS-12-PE): 1.3
IC50 (HS-5 cells [4]): 2000 nM
Selectivity index (proliferation) (HL-60 cells; IC50 HS-5 / IC50 HL-60): 1.8
NF-κB inhibition (in words) (NF-κB): potent NF-κB inhibitor
IC50 [5]: 10000 nM
IC50 (AMO-1 cells; Homo sapiens, AMO1, 72 h, AMO-1, 72 h, 95% confidence interval in brackets, read-out: IC50 inhibition of proliferation): 1600 nM
Selectivity index (proliferation) (AMO-1 cells; IC50 HS-5 / IC50 AMO-1): 1.2
IC50 [6]: 560 nM
IC50 [7]: 630 nM
Selectivity index (proliferation) (MOLM-13 cells [8]; IC50 HS-5 / IC50 MOLM-13): 2.0
